The values that follow come from publication PMC9445589, “Apolipoprotein E mimetic peptide COG1410 combats pandrug-resistant Acinetobacter baumannii” (Frontiers in Microbiology, 2022).

≈ marks a conversion by molar mass, not a printed value. Where “and” joins values, the source holds several entries; their conditions need not be identical. Equal entries are not always repeated. Where two headings read alike, the source gives them in different places.

The test system of test [1] is PDR Acinetobacter baumannii YQ4. The experiment in a line: microbe, parasite or virus in culture. It counts as cell-based. The protocol:
Strain stocks were maintained at −80°C in 10% glycerol. Bacteria were streaked on fresh plates before each experiment. Most of them were cultured in LB broth containing 10 g/L NaCl at 37°C, except for Mycobacteria in 7H9 broth and Enterococcus in BHI broth. Porphyromonas gingivalis was cultured in BHI broth supplemented with 1 μg/ml vitamin k1, 5 μg/ml hemin, and 5 mg/ml L-cysteine hydrochloride at 37°C in the anaerobic chamber. The minimal inhibitory concentrations (MICs) of antimicrobials were determined using the microdilution method in the corresponding broth.
The pandrug-resistant A. baumannii YQ4 was collected from the clinical laboratory of the second hospital in Nanjing. The complete genome was sequenced by Nanopore, and the data were deposited in the GenBank with accession number CP053033.

Test [2] relates to PDR A. baumannii strain YQ4. The experiment in a line: checkerboard synergy, fractional inhibitory concentration (FIC). In kind it is cell-based, Acinetobacter baumannii. The following applies: checkerboard method, 37°C, 20 h, two independent experiments.
A further test concerns Escherichia coli. The following applies: cited from earlier work. An excerpt:
(§1) Supplement Table_1.DOCX, table 1: Table S1. Antibacterial effect of ApoE-derived peptides. | column: MIC (μM) || However, the current pipeline of novel antibiotic development is stagnant, which could not keep pace with these evolving pathogens. The pharmaceutical field turns to seek non-conventional anti-infective agents. The antimicrobial peptides (AMPs) have drawn a lot of attention as novel chemotherapeutic candidates because of their unique mechanisms of action (Mahlapuu et al., [2016]). It is known that the sources of AMPs are diverse, ranging from prokaryotes to humans (Zhang and Gallo, [2016]). One of the most promising AMPs is the protein mimetic peptide, which originates from a functional protei ...

The next test deals with Pseudomonas aeruginosa. As to conditions: cited from earlier work.
Description: as §1

For another test, the system named is Staphylococcus aureus. As to conditions: cited from earlier work. An excerpt:
(§2) Supplement Table_1.DOCX, table 1: Table S1. Antibacterial effect of ApoE-derived peptides. | column: MIC (μM)

The subject of another test is Enterococcus faecium. As to conditions: ref (1); cited from earlier work.
Description: as §2

The test system of another test is Acinetobacter baumannii. As to conditions: ref (1); cited from earlier work.
Description: as §1

For a further test, the system named is Klebsiella pneumoniae. As to conditions: cited from earlier work.
Description: as §2

Another test relates to A. baumannii. The following applies: ref De Breij et al., [2018], cited from earlier work. As to the method: The major challenge for the therapeutic application of AMP is the degradation or inactivation in plasma (Dijksteel et al., [2021]). The bactericidal efficacy of COG1410 was further assessed in plasma. The LC99.9 values of COG1410 in PBS and 50% pooled plasma were 1.4 and 5.6 μM, respectively. This was even better than LL-37-derived AMP, SAAP-148, of which the corresponding LC99.9 values were 1.6 and 12.8 μM, against A. baumannii, respectively (De Breij et al., [2018]).

Test [3] deals with A. baumannii YQ4. The experiment in a line: scanning electron microscopy (SEM) of treated cells. It counts as cell-based, Acinetobacter baumannii.
Description: The log-phase culture of A. baumannii YQ4 was prepared as described above, harvested, and washed once with PBS. The pellets were suspended in PBS supplemented with 1 × COG1410 (16 μg/ml) or 1 × polymyxin B (16 μg/ml) and incubated at 37°C for 30 min. The untreated culture was used as a positive control to observe the morphology of the intact cell. […] After washing three times with PBS, the cells were post-fixed in 1% osmium at 4 °C for 1 h. After washing in distilled water for 1 h, the bacteria were dehydrated in the ascending concentrations of ethanol. Finally, these samples were transferred to ThermoFisher Quattro SEM for image collection after tert-butanol freeze-drying and sputter coating.
For test [4], the system named is A. baumannii YQ4. The experiment in a line: Live/Dead BacLight SYTO-9/PI staining, confocal microscopy. In kind it is cell-based, Acinetobacter baumannii.
Description: The damage to the cytoplasmic membrane was determined as described previously (Farkas et al., [2017]), with the Live/Dead BacLight bacterial viability kit (Invitrogen L7012). The log-phase culture of A. baumannii YQ4 was washed two times and suspended in PBS with the final OD600 of 0.1. […] Then, the cells were stained with 7.5 μM SYTO-9 and 30 μM propidium iodide (PI) in dark for 15 min. In total, 5 μl of culture was spotted on a clean slide coated with a thin layer of 1% agarose. The fluorescence was observed by Olympus FV3000 confocal laser scanning microscope. For SYTO-9, the excitation and emission were 483 and 503 nm, respectively. For PI, the excitation and emission were 493 and 636 nm, respectively.
The subject of the next test is A. baumanii YQ4. The experiment in a line: induction of resistance through serial passage. The following applies: sub-MIC exposure, 55 passages.
The subject of test [5] is A. baumannii YQ4. Description: ATP leak assay. In kind it is cell-based, Acinetobacter baumannii. The following applies: 16 μg/ml COG1410, 16 μg/ml polymyxin B or 32 μg/ml tigecycline (1× MIC), PBS, 37°C, 30 min. The protocol: ATP leak assay was performed using the Enhanced ATP Assay Kit of Beyotime ([…]) according to the manufacturer's manual. […] The supernatant was harvested and used for the measurement of ATP levels. In total, 100 μl of supernatant was mixed with 100 μl of working solution, and the chemiluminescence was measured by using a Biotek Synergy H1 plate reader. The untreated sample was set as a negative control. The experiments were performed in triplicate.

Test [6] deals with A. baumannii YQ4. Description: transmission electron microscopy (TEM) of treated cells.
Where [7] appears, read: Acinetobacter baumannii, Table 2, agent alone, PDR A. baumannii strain YQ4, unit not in the table, μg/ml, read-out: MIC.

As to `NCC[C@H](O)C(=O)N[C@@H]1C[C@H](N)[C@@H](O[C@H]2O[C@H](CN)[C@@H](O)[C@H](O)[C@H]2O)[C@H](O)[C@H]1O[C@H]1O[C@H](CO)[C@@H](O)[C@H](N)[C@H]1O` [AMI, amikacin], in test [1] (setting [7]), the MIC was greater than 1020 mg/L. In [2], the “FIC with COG1410” value is on record as greater than 1.
In test [1] (Acinetobacter baumannii), `CC(C)(O/N=C(\C(=O)N[C@@H]1C(=O)N2C(C(=O)[O-])=C(C[n+]3ccccc3)CS[C@H]12)c1csc(N)n1)C(=O)O` [CAZ, ceftazidime] yielded an MIC of 512 mg/L (≈ 937 µM). In addition, in test [2], the “FIC with COG1410” value was 0.31.
As for `O=C(O)c1cn(C2CC2)c2cc(N3CCNCC3)c(F)cc2c1=O` [CIP, ciprofloxacin], the MIC in test [1] (Acinetobacter baumannii) amounted to 256 mg/L (≈ 773 µM). Besides, in [2], the “FIC with COG1410” value was determined as 0.8.
Take `C[C@@H](O)[C@H]1C(=O)N2C(C(=O)O)=C(S[C@@H]3CN[C@H](C(=O)N(C)C)C3)[C@H](C)[C@H]12` [MERO, meropenem]: the MIC in test [1] (setting [7]) is 32 mg/L (≈ 83.4 µM). Also, the “FIC with COG1410” value in test [2] is 0.56.
Turning to `CN(C)[C@@H]1C(O)=C(C(N)=O)C(=O)[C@@]2(O)C(O)=C3C(=O)c4c(O)cccc4[C@@](C)(O)[C@H]3C[C@@H]12` [TET, tetracycline], the MIC in test [1] (setting [7]) turned out to be 1020 mg/L (≈ 2300 µM). In test [2], the “FIC with COG1410” value worked out at 0.31.
As for `CN(C)c1cc(NC(=O)CNC(C)(C)C)c(O)c2c1C[C@H]1C[C@H]3[C@H](N(C)C)C(O)=C(C(N)=O)C(=O)[C@@]3(O)C(O)=C1C2=O` [TGC, tigecycline], the MIC in test [1] (setting [7]) stood at 32 mg/L (≈ 54.6 µM). Besides, the “FIC with COG1410” value in [2] is given as 1.06.
As for “ApoE130−162: fragment containing the receptor-binding domain of ApoE (130–162) (TEELRVRLASHLRKLRKRLLRDADDLQKRLAVY; UniProt P02649 148-180, looked up, fragment)”, the “antibacterial activity, in words” value is “active” with Escherichia coli (ref Azuma et al., [2000]) and “to a lesser extent” in the test on Pseudomonas aeruginosa (compared with Escherichia coli, ref Azuma et al., [2000]).
As to “LRKLRKRLL [ApoE141-149, ApoE-derived peptide, location 141-149]”, in the test on Staphylococcus aureus (ref (3)), the “MIC, Sa” value was “void (“void” indicates that the MIC is more than 100 μM)”. In addition, in the test on Pseudomonas aeruginosa (ref (3)), the “MIC, Pa” value is 30 µM.
For the compound “LRKLRKRLLLRKLRKRLL [ApoEp, ApoE-derived peptide, locations 141-149+141-149]”, in the test with Staphylococcus aureus (ref (1, 3)), the “MIC, Sa” value is 35 µM. Moreover, the “MIC, Pa” value in the test on Pseudomonas aeruginosa (ref (1, 3)) was 5 µM.
Regarding “LRKLRKRLVRLASHLRKLRKRLL [ApoE23, ApoE-derived peptide, locations 141-148+135-149]”, in the test with Enterococcus faecium, the “MIC, Ef” value is given as “void (“void” indicates that the MIC is more than 100 μM)”. Further, the “MIC, Sa” value in the test with Staphylococcus aureus (ref (1)) is 5.4 µM. Besides, in the test on Escherichia coli (ref (1)), the “MIC, Ec” value was 2.0 µM. For the same compound, in the test with Pseudomonas aeruginosa (ref (1)), the “MIC, Pa” value is 2.7 µM. Further, the “MIC, Ab” value in the test with Acinetobacter baumannii is 2 µM and 2.0 µM.
As for “LRVRLASHLRKLRKRLL [COG133, ApoE-derived peptide, 133–149 of ApoE]”, the “MIC, Sa” value with Staphylococcus aureus (ref (5)) is “void (“void” indicates that the MIC is more than 100 μM)”. The “MIC, Kp” value in the test on Klebsiella pneumoniae (ref (5)) was 3.12 µM. Further, the “MIC, Pa” value in the test with Pseudomonas aeruginosa (ref (5)) is given as 25/50.
For “LRVRLASHLRKLRKRLLR [sApoE133-150, ApoE-derived peptide, location 133-150]”, the “MIC, Sa” value in the test on Staphylococcus aureus (ref (5)) is 3.12 µM. Also, the “MIC, Kp” value in the test on Klebsiella pneumoniae (ref (5)) was 6.25 µM. Besides, in the test on Pseudomonas aeruginosa (ref (5)), the “MIC, Pa” value was 25/50.
Turning to “LRVRLASHLRKLRKRLLRDADDLQKRLAVY [ApoE30, ApoE-derived peptide, location 133-162]”, the “MIC, Sa” value in the test on Staphylococcus aureus (ref (2)) is 16.2 µM. Further, the “MIC, Ec” value in the test on Escherichia coli (ref (2)) was 1.3 µM. Further, in the test on Pseudomonas aeruginosa (ref (2)), the “MIC, Pa” value was 8.1 µM.
In the case of SAAP-148, the LC99.9 with A. baumannii (50% pooled plasma) is 12.8 µM; in the test with A. baumannii (PBS), 1.6 µM.
Consider “WRKWRKRWWWRKWRKRWW [ApoEp-W, ApoE-derived peptide, locations 141-149+141-149]”, for which the “MIC, Sa” value in the test on Staphylococcus aureus (ref (4)) was less than 3.3 µM. In the test with Klebsiella pneumoniae (ref (4)), the “MIC, Kp” value was less than 3.3 µM.
Consider gentamycin [GM], for which the MIC in test [1] (Table 2, agent alone, PDR A. baumannii strain YQ4, unit not in the table, μg/ml) is given as >1,024 μg/ml. For the same compound, the “FIC with COG1410” value in test [2] is recorded as greater than 1.
Regarding polymyxin B [reference compound], the “cell morphology by SEM” value with A. baumannii YQ4 [3] is “cell lysis and release of cell contents”. Also, the “SYTO-9/PI staining of treated cells” value in the test with A. baumannii YQ4 [4] is “red fluorescence”. Besides, in the test with A. baumanii YQ4, the “increase of MIC after serial passage” value is given as 64 fold. Besides, in the test with A. baumannii YQ4 [5], the “ATP leak (extracellular ATP)” value was “released more ATP compared to untreated cells”. For the same compound, in the test on A. baumannii YQ4 [6], the “cell membrane integrity by TEM” value was “collapse of cell walls in most of the cells”.
